# Source: PubChem BioAssay AID2141 (Sanford-Burnham Center for Chemical Genomics, 2009)
# Active and inactive are the calls of the source. The rule behind the calls is not given here.
# Target: E3 ubiquitin-protein ligase SIAH1 (Homo sapiens) (UniProt Q8IUQ4)
# Assay: Siah-1 binding antagonists, dose response, biochemical, TR-FRET (AID 2141)
# Conditions: TR-FRET biochemical assay
row,Compound,IC50
1,O=C(Nc1cccc(Oc2ccc(C(=O)O)c(C(=O)O)c2)c1)c1ccc(-c2ccccc2)cc1,11.6 µM
2,CCC(C)N1C(=O)/C(=C/c2c(NCCCOC(C)C)nc3c(C)cccn3c2=O)SC1=S (stereo not drawn),> 200 µM (inactive)
3,COC(=O)C1CC(=O)N(c2ccc(OCc3ccccc3Cl)cc2)C1 (stereo not drawn),> 200 µM (inactive)
4,N#Cc1c(NC(=O)c2ccc(Br)o2)n(-c2ccccc2)c2nc3ccccc3nc12,3.73 µM
5,COC/C=C/C1=CC2=CC(=O)C(C)(OC(=O)c3ccco3)C(=O)C2=CO1 (stereo not drawn),5.94 µM
6,CCCCn1c(NS(=O)(=O)c2ccc(C)cc2)c(S(=O)(=O)c2ccccc2)c2nc3ccccc3nc21,3.41 µM
7,CC1CCN(S(=O)(=O)c2ccc3c(c2)c(=O)c(C(=O)NCc2ccccc2Cl)cn3C)CC1,> 200 µM (inactive)
8,Cc1cc(C)n(-c2ccc(Cl)c(C(=O)Nc3cc(C(F)(F)F)ccc3Cl)n2)n1,> 200 µM (inactive)
9,O=C(CCN1CCN(Cc2ccccc2)CC1)Nc1cccc(Cl)c1,> 200 µM (inactive)
10,Cc1ccccc1-c1nc2c3ccccc3nc(=S)n2[nH]1,> 200 µM (inactive)
11,N#CC1C=Cc2ccccc2N1C(=O)c1ccccc1 (stereo not drawn),> 200 µM (inactive)
12,O=C(NCc1c(F)cccc1F)c1cc(COc2c(F)cccc2F)on1,> 200 µM (inactive)
13,Nc1ccc(O)c2c1C(=O)c1ccccc1C2=O,< 1.56 µM
14,COCCCn1c(N)c(C(=O)NCc2ccco2)c2nc3ccccc3nc21,2.31 µM
15,COC(=O)c1c(C(=O)OC)c2cccc3cc(-c4ccccc4)c4ccc1c4n32,14.6 µM
16,CC(C)(C)c1ccc(C(CC(=O)O)NC(=O)Cc2ccc(F)cc2)cc1 (stereo not drawn),4.55 µM
17,CCOC(=O)C1=C(C)N=c2s/c(=C\c3ccc(OCC(=O)O)cc3)c(=O)n2C1c1ccc(Cl)cc1 (stereo not drawn),> 200 µM (inactive)
18,COC(=O)c1cc(NC(=O)c2ccccc2)c(=O)oc1/C=C/Nc1ccc(Oc2ccccc2)cc1,> 200 µM (inactive)
19,CSc1ccccc1C(=O)NC(C)c1ccc(-n2ccnc2)cc1 (stereo not drawn),inactive
20,COc1ccc(-c2cnnn2-c2ccc(N)cc2)cc1OC,> 200 µM (inactive)
21,Nc1ccc(S(=O)(=O)Nc2ccc(S(N)(=O)=O)cc2)cc1,> 200 µM (inactive)
22,Nc1c(C(=O)NCc2ccco2)c2nc3ccccc3nc2n1Cc1ccccc1,< 1.56 µM
23,O=C1C=C(NCc2ccccc2)c2ccccc2C1=O,15.6 µM
24,Cc1ccc(C(=O)NC2CC3CCCC(C2)N3C(=O)NC2CCCCC2)cc1 (stereo not drawn),> 200 µM (inactive)
25,O=C(CCn1ccc2ccccc21)NC1CCCc2ccccc21 (stereo not drawn),> 200 µM (inactive)
26,CCCCn1c(NC(=O)c2ccc(Br)o2)c(C(=O)OCC)c2nc3ccccc3nc21,2.04 µM

row,Compound,IC50
1,COc1ccc(N=C2NC(=O)S/C2=C\c2ccc(N(C)C)cc2)cc1,> 200 µM (inactive)
2,O=C(Cn1cnc2scc(-c3ccccc3)c2c1=O)NCc1ccco1,7.29 µM
3,CCC1=Nc2cc(C(=O)O)ccc2Sc2ccccc21,inactive
4,Cc1ccccc1NC(=O)CN1C(=O)N/C(=C\c2ccccc2OCc2ccc(C(=O)O)cc2)C1=O,5.04 µM
5,CC(=O)c1ccc(NC(=O)CC2Nc3cccc4cccc(c34)NC2=O)cc1 (stereo not drawn),8.51 µM
6,O=C(O)c1ccc(/C=N/NC(=O)c2ccc(CN3c4cccc5cccc(c45)S3(=O)=O)cc2)cc1,18.3 µM
7,CCN(CC)CCOC(=O)c1ccc(N/C=C(/C#N)c2nc(-c3ccc(OC)c(OC)c3)cs2)cc1,< 1.56 µM
8,O=C(Nc1ccc(Cl)cc1)OCc1cn(-c2ccccc2)nn1,> 200 µM (inactive)
9,O=S(=O)(Nc1nc2ccccc2nc1Nc1ccc(N2CCOCC2)cc1)c1cc(Cl)ccc1Cl,> 200 µM (inactive)
10,NS(=O)(=O)c1ccc(NC(=O)c2cccc(N3C(=O)c4ccccc4C3=O)c2)cc1,10.6 µM
11,CC(C)COc1ccc(-c2nn(-c3ccccc3)cc2/C=C2/SC(=S)N(CC(=O)O)C2=O)cc1,3.91 µM
12,CCCCn1c(NS(=O)(=O)c2ccccc2)c(C(=O)OCC)c2nc3ccccc3nc21,2.16 µM
13,O=C(Nc1cc([N+](=O)[O-])ccc1N1CCOCC1)c1cccs1,> 200 µM (inactive)
14,S=c1[nH]nc(Cc2cccc3ccccc23)n1-c1ccccc1,> 200 µM (inactive)
15,COc1ccc(CNC(=S)Nc2cc(OC)ccc2OC)cc1,> 200 µM (inactive)
16,Cc1cc(C)nc(N=Nc2c(O)n(Cc3ccc(Cl)cc3)c3ccccc23)n1,> 200 µM (inactive)
17,O=S(=O)(Nc1cc2nc3ccccc3nc2n1Cc1ccccc1)c1ccc(Cl)cc1,6.05 µM
18,O=C(Nc1nc(-c2cc3ccccc3oc2=O)cs1)c1ccco1,2.39 µM
19,CCOc1ccccc1CNc1ccc(O)cc1,5.11 µM
20,Fc1ccc(/C=N/NC(=S)Nc2cccnc2)cc1F,inactive
21,Cc1ccc(S(=O)(=O)NN=C2C3CC4CC(C3)CC2C4)cc1[N+](=O)[O-],> 200 µM (inactive)
22,Oc1c(Br)cc(Br)cc1CNc1ccc(F)cc1,inactive
23,Cc1ccc(CNc2ccc(O)cc2)cc1,4.51 µM
24,CC1=C(C#N)c2nc(N)c(C#N)c(C)c2/C1=C\c1ccc(-c2ccccc2C(=O)O)o1,> 200 µM (inactive)
25,O=C(CSc1ccc(Br)c2cccc(Cl)c12)Nc1ccc(S(=O)(=O)Nc2nccs2)cc1,> 200 µM (inactive)
26,CN(C)CCOC(=O)CCc1ccccc1,> 200 µM (inactive)

row,Compound,IC50
1,CC(=O)Nc1ccc(N=Cc2c(O)c(C(=O)Nc3ccccc3)cc3ccccc23)cc1,> 200 µM (inactive)
2,O=S(=O)(Nc1c(S(=O)(=O)c2ccccc2)c2nc3ccccc3nc2n1C1CCCCC1)c1ccccc1,2.09 µM
3,CCNc1ccc(C(=O)O)cc1N,3.96 µM
4,Cc1c(C(=O)O)sc2nc(CSc3ncc(C(F)(F)F)cc3Cl)[nH]c(=O)c12,7.65 µM
5,CCN(CC)c1ccc(C=N/C(C#N)=C(\N)C#N)cc1,> 200 µM (inactive)
6,CCCCn1c(NS(=O)(=O)c2ccccc2)c(S(=O)(=O)c2ccc(C)cc2)c2nc3ccccc3nc21,1.6 µM
7,COc1cccc(CCC(=O)N(C)C2CCCN(Cc3ccccc3F)C2)c1 (stereo not drawn),> 200 µM (inactive)
8,O=C(N/N=C/c1ccc(OC(=O)c2cccs2)cc1)c1cccc(F)c1,1.79 µM
9,CSc1n[nH]c(NCc2ccc(Cl)cc2)n1,> 200 µM (inactive)
10,O=C(Nc1ccc(Oc2ccsc2C(=O)O)cc1)c1ccccc1F,inactive
11,CC[n+]1c(/C=C/N(C)c2ccccc2)sc2ccc(Cl)cc21,> 200 µM (inactive)
12,O=C(Nc1ccc(Br)cc1)c1ccc(N2C(=O)C3CC=CCC3C2=O)cc1 (stereo not drawn),4.27 µM
13,Cc1cc2cc(CNC(=O)c3ccc(S(=O)(=O)N4CCCCC4)cc3)ccc2n1C,6.45 µM
14,O=C(O)CCN1C(=O)/C(=C/c2cn(-c3ccccc3)nc2-c2cccs2)SC1=S,inactive
15,CCn1c(O)c(C=Nc2ccc(N3CCOCC3)cc2)c(=O)n(CC)c1=S,> 200 µM (inactive)
16,Cc1ccc2c(c1)N(CC(=O)NCCc1ccc(Cl)cc1)C(=O)c1cccnc1O2,> 200 µM (inactive)
17,C=C(C)Cn1c(N2CCN(CC)CC2)nc2c1c(=O)[nH]c(=O)n2C,> 200 µM (inactive)
18,O=C(O)c1cc(Cl)c(Cl)cc1C(=O)Nc1cccc2cccnc12,7.1 µM
19,Cc1ccc(C(=O)COc2ccccc2C(=O)Nc2ccccc2)cc1,> 200 µM (inactive)
20,CN(C)c1cccc2c(C=C(C#N)C#N)ccc(N(C)C)c12,inactive
21,COc1ccc(CCNC(=O)c2ccc(S(=O)(=O)N(C)c3ccccc3)cc2)cc1OC,> 200 µM (inactive)
22,Oc1ccc(N=Cc2sc3ccccc3c2Cl)cc1,14.9 µM
23,CCC(C)[C@H](NC(=O)N1CCn2c1nc1ccccc12)C(=O)NCCc1ccc(OC)c(OC)c1 (stereo partly drawn),> 200 µM (inactive)
24,COCCOC(=O)c1sc(=S)n(CCOC)c1N,10.6 µM
25,O=C(Nc1ccccc1N1CCCCC1)c1ccc(-c2cccc(Cl)c2)o1,> 200 µM (inactive)
26,C[C@]12CCC3C(CC=C4C[C@@H](O)CC[C@@]43C)C1CCC2[C@]1(C)CCC(=O)O1 (stereo partly drawn),> 200 µM (inactive)
